Structures are written as SMILES. A value given as a limit tells only on which side of the number the result lay.

In test [1] the target is T1, Alpha-1A adrenergic receptor (Homo sapiens, UniProt P35348).
T1 sequence (P35348 whole entry): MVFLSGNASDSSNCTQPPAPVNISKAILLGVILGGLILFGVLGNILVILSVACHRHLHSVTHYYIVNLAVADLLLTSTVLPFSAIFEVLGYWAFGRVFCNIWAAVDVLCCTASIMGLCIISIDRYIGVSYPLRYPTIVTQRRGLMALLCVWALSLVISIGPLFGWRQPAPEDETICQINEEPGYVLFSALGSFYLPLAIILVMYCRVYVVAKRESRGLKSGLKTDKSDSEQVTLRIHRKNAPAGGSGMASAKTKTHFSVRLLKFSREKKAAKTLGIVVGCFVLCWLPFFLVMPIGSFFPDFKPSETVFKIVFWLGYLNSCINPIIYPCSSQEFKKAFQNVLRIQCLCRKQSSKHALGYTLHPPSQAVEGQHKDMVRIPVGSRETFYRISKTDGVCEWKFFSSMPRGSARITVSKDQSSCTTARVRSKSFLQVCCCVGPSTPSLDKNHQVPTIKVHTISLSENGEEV
The experiment in a line: Displacement of [125I]HEAT from COS cell membranes expressing human Alpha-1A adrenergic receptor.

Test [2] has as its target Alpha adrenergic receptor (1a and 1d) (Homo sapiens) (UniProt P35348+P25100). The test can be described thus: Relative binding to alpha1d and alpha-1a receptors (ratio of Ki). Format: protein assay.
Test [3] deals with T2, Alpha-1D adrenergic receptor (Homo sapiens, UniProt P25100).
T2 sequence (P25100 whole entry): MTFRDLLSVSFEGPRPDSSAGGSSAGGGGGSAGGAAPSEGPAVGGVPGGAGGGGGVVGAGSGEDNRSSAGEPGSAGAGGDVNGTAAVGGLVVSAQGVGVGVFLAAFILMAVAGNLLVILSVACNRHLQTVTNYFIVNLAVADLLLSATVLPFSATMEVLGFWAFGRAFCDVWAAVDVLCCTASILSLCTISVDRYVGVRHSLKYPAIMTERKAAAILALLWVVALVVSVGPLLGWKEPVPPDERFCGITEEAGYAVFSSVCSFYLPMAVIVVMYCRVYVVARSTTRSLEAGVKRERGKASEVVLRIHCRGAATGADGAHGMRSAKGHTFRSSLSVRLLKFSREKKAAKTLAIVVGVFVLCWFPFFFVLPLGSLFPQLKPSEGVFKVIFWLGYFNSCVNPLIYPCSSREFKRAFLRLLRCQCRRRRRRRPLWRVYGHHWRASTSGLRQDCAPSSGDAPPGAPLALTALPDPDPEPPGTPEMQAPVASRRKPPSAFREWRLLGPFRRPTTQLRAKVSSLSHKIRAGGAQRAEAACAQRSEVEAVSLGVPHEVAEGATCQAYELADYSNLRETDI
The experiment in a line: Displacement of [125I]-HEAT from human Alpha-1D adrenergic receptor expressed in COS cells membranes. In kind it is cell membranes.

Test [4] concerns the target Adrenergic receptors; alpha-1 A & B (Homo sapiens) (UniProt P35348+P35368). The experiment in a line: Relative binding to alpha-1b and alpha-1a receptors (ratio of Ki). Format: protein assay.
Test [5] deals with T3, Alpha-1B adrenergic receptor (Homo sapiens, UniProt P35368).
T3 sequence (P35368 whole entry): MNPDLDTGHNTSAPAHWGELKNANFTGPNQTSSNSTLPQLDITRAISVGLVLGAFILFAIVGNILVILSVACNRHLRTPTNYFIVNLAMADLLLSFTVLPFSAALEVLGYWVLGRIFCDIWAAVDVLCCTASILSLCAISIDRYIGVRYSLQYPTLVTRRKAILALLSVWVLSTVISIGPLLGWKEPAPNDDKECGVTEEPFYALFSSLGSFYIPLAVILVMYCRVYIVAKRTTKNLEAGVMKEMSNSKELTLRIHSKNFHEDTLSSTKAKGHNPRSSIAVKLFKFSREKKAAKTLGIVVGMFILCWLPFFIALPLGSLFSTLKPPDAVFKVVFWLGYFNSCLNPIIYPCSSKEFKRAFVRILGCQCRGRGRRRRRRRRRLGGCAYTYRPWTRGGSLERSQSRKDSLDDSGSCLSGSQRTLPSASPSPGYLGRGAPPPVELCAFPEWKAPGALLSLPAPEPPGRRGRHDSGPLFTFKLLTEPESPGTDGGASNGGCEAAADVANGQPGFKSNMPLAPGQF
The experiment in a line: Displacement of [125I]HEAT from COS cells membranes expressing human Alpha-1B adrenergic receptor. In kind it is cell membranes.

Take `COc1ccccc1N1CCN(Cc2ccc(CN3CCCCC3=O)s2)CC1`: the Ki in test [1] is 14 nM; in test [3], 12 nM; in test [5] it was more than 5000 nM. The Ratio is 0.9 in test [2] and more than 357 in test [4].
As to `COC(=O)[C@@H]1CCCN1Cc1ccc(CN2CCN(c3ccccc3OC)CC2)s1`, the results for the Ki in test [1], in test [3] and in test [5] were 12 nM, 15 nM and 592 nM, respectively. Further, the Ratio in test [2] was 1.3; in test [4] it was 49.
As for `CC(C)Oc1ccccc1N1CCN(Cc2cc(CN3CCCCCC3=O)cs2)CC1`, the Ki in test [1] came out at 1.8 nM; in test [3], 47 nM; in test [5], 615 nM. The figures for the Ratio in test [2] and in test [4] were 26 and 342, respectively.
The corresponding values for `CC(C)Oc1ccccc1N1CCN(Cc2cc(CO)cs2)CC1` are 331 nM, 339 nM, more than 5000 nM, 1 and more than 15.
For `CC(C)Oc1ccccc1N1CCN(Cc2cc(CN3CCCC3=O)cs2)CC1` the same measures were 0.2 nM, 25 nM, 259 nM, 147 and 1520.
Take `COc1ccccc1N1CCN(Cc2ccc(CN3CCCC3=O)s2)CC1`: the inhibition constant (Ki) in test [1] was 40 nM; in test [3], 23 nM; in test [5], more than 5000 nM. The Ratio in test [2] was 0.6; in test [4] it was more than 125.
For `CC(C)Oc1ccccc1N1CCN(Cc2ccc(CN3CCCCC3=O)s2)CC1` the same measures were 0.3 nM, 18 nM, 413 nM, 54 and 1250.
Turning to `COc1ccccc1N1CCN(Cc2ccc(Br)s2)CC1`, the Ki in test [1] is 128 nM; in test [3], 92 nM; in test [5], 757 nM. The values for the Ratio in test [2] and in test [4] were 0.7 and 6, respectively.
The corresponding values for `COc1ccccc1N1CCN(Cc2ccc(CN3CCCCCC3=O)s2)CC1` are 18 nM, 13 nM, more than 5000 nM, 0.7 and more than 278.
Take `CC(C)Oc1ccccc1N1CCN(Cc2cc(CN3CCCCC3=O)cs2)CC1`: the inhibition constant (Ki) in test [1] was 0.5 nM; in test [3], 92 nM; in test [5] it was 384 nM. Also, the Ratio was 184 in test [2] and 769 in test [4].
On to `COc1ccccc1N1CCN(Cc2ccc(C=O)s2)CC1`, for which the Ki is 578 nM in test [1], 262 nM in test [3] and 1880 nM in test [5]. The Ratio in test [2] came to 0.4; in test [4], 3.2.
On to `COc1ccccc1N1CCN(Cc2ccc(CO)s2)CC1`, for which the Ki is 202 nM in test [1], 138 nM in test [3] and 1060 nM in test [5]. In addition, the values for the Ratio in test [2] and in test [4] were 0.7 and 5.3, respectively.
Consider `COc1ccccc1N1CCN(Cc2ccc(CN3CCCCC3O)s2)CC1` (stereo not given), for which the Ki was determined as 419 nM in test [1], 130 nM in test [3] and 2570 nM in test [5]. Further, the figures for the Ratio in test [2] and in test [4] were 0.3 and 6.1, respectively.

(Values after ChEMBL document CHEMBL1134860, “Novel thiophene derivatives for the treatment of benign prostatic hyperplasia” (Bioorg Med Chem Lett, 2002).)
